Results from PubChem BioAssay AID1053161 (Broad Institute, 2014).

System: HepG2 LDLR mRNA, qPCR, 6 h
Assay: LDLR mRNA induction with sterol depletion, late-stage follow-up, mechanism study for Trib1 inducer project, cell-based, HepG2, RT-PCR, cherry-picked dose (AID 1053161)
Conditions: hits give high values

**Q.** Which fold induction does the source give for `CN1C(=O)c2cc(NC(=O)c3ccc(C(F)(F)F)cc3)ccc2OC[C@@H]2O[C@H](CC(=O)NC3Cc4ccccc4C3)CC[C@@H]21` here?
**A.** 2.5
